Measured values taken from patent US20260000735A1, “ENHANCED DIFFERENTIATION OF BETA CELLS” (Vertex Pharmaceuticals Incorporated, priority 2019, published 2026).

Experiments:
Format in all cases: cell-based
[1] = test system: SC-β cells (Nkx6.1/Isl1 double positive cells); experiment: Percent SC-β cells (Nkx6.1/Isl1 double positive) by FACS; details: for SC-β cell percent in stage 6: added to the culture medium during days 1-10 of stage 6, JJKK 048 1 μM, KML 29 10 μM, NF 1819 10 μM
Procedure: (§1) In this instance cryopreserved stage 5 individual cells were thawed and cultured in a modified stage 5 (S5) medium during the first 4 days of Stage 6 (S6d1-d4) […], with subsequent culture of the cells in Stage 6 (S6) medium (see experimental outline in FIG. 2).
(§2) The effect of supplementing the modified S5 medium used in stage 6 with one or more saturated fatty acid of unsaturated fatty acid was analyzed. The fatty acids analyzed included palmitate (saturated fatty acid), oleic acid (unsaturated fatty acid), linoleic acid (unsaturated fatty acid), and palmitoleic acid (unsaturated fatty acid) (see protocol is outlined in FIG. 20). The fatty acid free HSA+fatty acid were stirred for 1 hour at 37° C.
MGLL (monoacylglycerol lipase) is a serine hydrolase that catalyzes the conversion of monoacylglycerides to free fatty acids and glycerol. The effect of three highly specific MGLL inhibitors (JJKK 048 (1 μM), KML 29 (10 μM), NF 1819 (10 μM)) on SC-β cell production was analyzed.
Stage 5 insulin-positive endocrine cell clusters were differentiated from stem cells as described herein. The insulin-positive endocrine cell clusters were dissociated such that the majority of the dissociated cells were now individual cells, and the cells were then cryopreserved, and thawed. The thawed individual cells were then differentiated into β cell clusters through a stage 6 differentiation. […] The base medium of MDCB 131 with 0.05% HSA was used for days 5-11 of stage 6 (FIG. 30, FIG. 31).

[2] = test system: thawed cryopreserved stage 5 cells; experiment: Cell recovery / viable cell number in stage 6 culture after thaw of cryopreserved stage 5 cells; details: inclusion in DS3 media
Procedure: The insulin-positive endocrine progenitor cell clusters were dissociated such that the majority of the dissociated cells were individual cells, and the cells were cryopreserved, and thawed. The thawed cells are then differentiated into β cell clusters through a stage 6 differentiation. The stage 6 culture medium comprises DMEM F12 base with 1% human serum albumin (HSA), and optionally 1.5 μM zinc (“DS2 medium”). […] Thus, whether alteration of the S6 medium could improve recovery was analyzed.
In this instance cryopreserved stage 5 individual cells were thawed and cultured in a modified stage 5 (S5) medium during the first 4 days of Stage 6 (S6d1-d4) (approximately 72 hours), with subsequent culture of the cells in Stage 6 (S6) medium (see experimental outline in FIG. 2).
Several factor drop out experiments were conducted to identify the contribution of each factor.

SC-islet cell clusters = experiment: Cell cluster size, morphology, homogeneity, re-aggregation and stability (microscopy); details: day 6 of stage 6 (S6d6), fatty acid supplementation
Procedure: as §2
A select number of metabolites were included in the DS6 medium, including: glutamate, acetate, β hydroxybutarate, L-caratine, taurine, formate, and biotin.

SC-β cells / SC-islets = experiment: Glucose stimulated insulin secretion (GSIS), human C-peptide per 1000 cells; details: day 10 of stage 6 (S6d10); addition post day 4 of stage 6
Procedure: FIG. 18A is a bar graph showing the glucose stimulated insulin secretion (GSIS) of cells at day 12 of stage 6 (S6d12). GSIS was measured as the level of human C-peptide (pM) per 1000 cells after glucose stimulation. The cells were cultured in stage 6 (S6) medium+1% HSA for days 1-12 of stage 6.
A range of 2.8 mM and 20 mM glucose was used to stimulate GSIS (See experimental protocol FIG. 13).

SC-β cells = experiment: Number / recovery / yield of SC-β cells in stage 6; details: day 10 of stage 6; with 0.5% HSA
Procedure: as §1, §2

O=C(N1CCC(C(c2ccc3c(c2)OCO3)c2ccc3c(c2)OCO3)CC1)n1cncn1 [JJKK 048]
SC-β cell percent in stage 6 [1]: around 50%

O=C(OC(C(F)(F)F)C(F)(F)F)N1CCC(C(O)(c2ccc3c(c2)OCO3)c2ccc3c(c2)OCO3)CC1 [KML 29]
SC-β cell percent in stage 6 [1]: around 50%

O=C1[C@H](c2ccc(F)cc2)[C@@H](c2ccc3c(c2)OCO3)N1C1CCN(C(=O)n2cncn2)CC1 [NF 1819]
SC-β cell percent in stage 6 [1]: around 50%

O=S(=O)([O-])[O-].[Zn+2] [ZnSO4]
S6d4 viable cell number [2]: greatly improves S6d4 viable cell number

CCCCC/C=C\C/C=C\CCCCCCCC(=O)O [linoleic acid]
size of the cell clusters (SC-islet cell clusters): enhances the size of the cell clusters

CCCCCCCCCCCCCCCC(=O)O [palmitate, palmitic acid]
GSIS (SC-β cells / SC-islets): improves GSIS | size of the cell clusters (SC-islet cell clusters): enhances the size of the cell clusters | percent of SC-β cells (Nkx6.1/Isl1 double positive cells) recovered ([1]; fatty acid added to the modified S5 medium, days 1-4 of stage 6): improved | total number of SC-β cells recovered (SC-β cells): enhanced the total number of SC-β cells recovered
